Measured values: ChEMBL document CHEMBL1139649, “Hetaryl imidazoles: a novel dual inhibitors of VEGF receptors I and II” (Bioorg Med Chem Lett, 2006)

Each compound was assayed against cAMP-dependent protein kinase (PKA) (Homo sapiens) (UniProt P22694+P17612+P22612) (assay: Inhibition against PKA at 10 uM by HTRF method).
Format: protein assay
Set-up: scale not given: the % may be the effect or the level left

Activity [%]	Compound
< 30	Cn1cnc(NCc2cccnc2)c1-c1nnc(Nc2ccc(Cl)cc2)o1
< 30	Cn1cnc(NCCc2ccc3c(c2)OCO3)c1-c1nnc(Nc2ccc(Cl)cc2)o1
< 30	Cc1ccc(Nc2nnc(-c3c(NCc4ccncc4)ncn3C)o2)c(F)c1
< 30	Cn1cnc(NCc2ccncc2)c1-c1nnc(Nc2ccc(Cl)c(C(F)(F)F)c2)o1

These compounds were tested against Insulin-like growth factor 1 receptor (Homo sapiens) (UniProt P08069) (assay: […] against IGF1R at 10 uM by HTRF method).
Insulin-like growth factor 1 receptor (Homo sapiens), sequence (P08069 31-736 limits assumed): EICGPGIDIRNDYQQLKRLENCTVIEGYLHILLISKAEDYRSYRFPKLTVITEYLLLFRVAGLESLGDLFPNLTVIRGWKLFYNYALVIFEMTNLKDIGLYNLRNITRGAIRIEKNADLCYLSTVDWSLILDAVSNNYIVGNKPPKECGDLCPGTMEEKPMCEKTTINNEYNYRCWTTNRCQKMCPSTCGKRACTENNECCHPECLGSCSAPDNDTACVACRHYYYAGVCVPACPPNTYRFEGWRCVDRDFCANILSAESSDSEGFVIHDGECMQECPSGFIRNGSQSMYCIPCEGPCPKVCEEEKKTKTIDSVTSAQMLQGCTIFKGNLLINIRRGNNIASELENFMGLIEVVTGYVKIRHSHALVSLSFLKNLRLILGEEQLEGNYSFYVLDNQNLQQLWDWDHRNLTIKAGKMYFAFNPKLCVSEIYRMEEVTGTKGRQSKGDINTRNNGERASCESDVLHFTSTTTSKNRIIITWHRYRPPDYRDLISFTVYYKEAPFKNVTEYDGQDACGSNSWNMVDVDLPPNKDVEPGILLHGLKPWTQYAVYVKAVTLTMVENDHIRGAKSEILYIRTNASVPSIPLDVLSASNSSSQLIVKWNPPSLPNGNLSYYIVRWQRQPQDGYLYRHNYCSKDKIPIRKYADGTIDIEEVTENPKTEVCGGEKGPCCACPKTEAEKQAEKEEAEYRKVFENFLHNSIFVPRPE
Insulin-like growth factor 1 receptor (Homo sapiens), sequence (P08069 741-1367 limits assumed): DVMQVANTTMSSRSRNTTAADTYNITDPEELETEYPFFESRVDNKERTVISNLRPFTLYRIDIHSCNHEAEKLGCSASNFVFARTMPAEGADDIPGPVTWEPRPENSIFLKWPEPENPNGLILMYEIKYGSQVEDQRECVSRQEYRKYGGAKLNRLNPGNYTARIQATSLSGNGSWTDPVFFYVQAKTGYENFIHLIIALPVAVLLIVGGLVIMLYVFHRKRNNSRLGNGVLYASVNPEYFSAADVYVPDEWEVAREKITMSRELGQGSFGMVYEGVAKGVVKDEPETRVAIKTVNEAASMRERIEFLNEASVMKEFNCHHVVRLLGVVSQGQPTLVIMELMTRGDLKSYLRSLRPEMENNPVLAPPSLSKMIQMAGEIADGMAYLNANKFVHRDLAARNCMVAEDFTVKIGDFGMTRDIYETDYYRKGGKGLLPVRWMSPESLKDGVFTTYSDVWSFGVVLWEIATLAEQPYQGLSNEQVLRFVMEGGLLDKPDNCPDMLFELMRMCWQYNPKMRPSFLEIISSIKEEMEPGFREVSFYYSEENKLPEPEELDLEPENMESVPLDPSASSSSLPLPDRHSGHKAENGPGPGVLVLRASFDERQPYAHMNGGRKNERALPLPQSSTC

Activity [%]	Compound
< 30	Cn1cnc(NCc2cccnc2)c1-c1nnc(Nc2ccc(Cl)cc2)o1
< 30	Cn1cnc(NCCc2ccc3c(c2)OCO3)c1-c1nnc(Nc2ccc(Cl)cc2)o1
< 30	Cc1ccc(Nc2nnc(-c3c(NCc4ccncc4)ncn3C)o2)c(F)c1
< 30	Cn1cnc(NCc2ccncc2)c1-c1nnc(Nc2ccc(Cl)c(C(F)(F)F)c2)o1

These compounds were tested against Bcr/Abl fusion protein (Homo sapiens) (UniProt P00519+P11274) (assay: Inhibition of bcr-Abl at 10 uM by HTRF method).
Format: protein assay
Set-up: scale not given: the % may be the effect or the level left

Activity [%]	Compound
< 30	Cn1cnc(NCc2cccnc2)c1-c1nnc(Nc2ccc(Cl)cc2)o1
< 30	Cn1cnc(NCCc2ccc3c(c2)OCO3)c1-c1nnc(Nc2ccc(Cl)cc2)o1
< 30	Cc1ccc(Nc2nnc(-c3c(NCc4ccncc4)ncn3C)o2)c(F)c1
< 30	Cn1cnc(NCc2ccncc2)c1-c1nnc(Nc2ccc(Cl)c(C(F)(F)F)c2)o1

What follows are compounds tested against Cyclin-dependent kinase 2 (Homo sapiens) (UniProt P24941) (assay: […] against Cdk2 at 10 uM by HTRF method).

Percent inhibition [%]	Compound
< 30	Cn1cnc(NCc2cccnc2)c1-c1nnc(Nc2ccc(Cl)cc2)o1
< 30	Cn1cnc(NCCc2ccc3c(c2)OCO3)c1-c1nnc(Nc2ccc(Cl)cc2)o1
< 30	Cc1ccc(Nc2nnc(-c3c(NCc4ccncc4)ncn3C)o2)c(F)c1
< 30	Cn1cnc(NCc2ccncc2)c1-c1nnc(Nc2ccc(Cl)c(C(F)(F)F)c2)o1

The compounds below were run against RAC-alpha serine/threonine-protein kinase (Homo sapiens) (UniProt P31749) (assay: […] against PKB/Akt at 10 uM by HTRF method).

Activity [%]	Compound
< 30	Cn1cnc(NCc2cccnc2)c1-c1nnc(Nc2ccc(Cl)cc2)o1
< 30	Cn1cnc(NCCc2ccc3c(c2)OCO3)c1-c1nnc(Nc2ccc(Cl)cc2)o1
< 30	Cc1ccc(Nc2nnc(-c3c(NCc4ccncc4)ncn3C)o2)c(F)c1
< 30	Cn1cnc(NCc2ccncc2)c1-c1nnc(Nc2ccc(Cl)c(C(F)(F)F)c2)o1

What follows are compounds tested against Glycogen synthase kinase-3 beta (Homo sapiens) (UniProt P49841) (assay: Inhibition against GSK3-beta at 10 uM by HTRF method).
Set-up: scale not given: the % may be the effect or the level left

Activity [%]	Compound
< 30	Cn1cnc(NCc2cccnc2)c1-c1nnc(Nc2ccc(Cl)cc2)o1
< 30	Cn1cnc(NCCc2ccc3c(c2)OCO3)c1-c1nnc(Nc2ccc(Cl)cc2)o1
< 30	Cc1ccc(Nc2nnc(-c3c(NCc4ccncc4)ncn3C)o2)c(F)c1
< 30	Cn1cnc(NCc2ccncc2)c1-c1nnc(Nc2ccc(Cl)c(C(F)(F)F)c2)o1

The compounds below were run against Fibroblast growth factor receptor 1 (Homo sapiens) (UniProt P11362) (assay: Percent inhibition against FGFR1 at 10 uM by HTRF method).
Fibroblast growth factor receptor 1 (Homo sapiens), sequence (P11362 22-822 limits assumed): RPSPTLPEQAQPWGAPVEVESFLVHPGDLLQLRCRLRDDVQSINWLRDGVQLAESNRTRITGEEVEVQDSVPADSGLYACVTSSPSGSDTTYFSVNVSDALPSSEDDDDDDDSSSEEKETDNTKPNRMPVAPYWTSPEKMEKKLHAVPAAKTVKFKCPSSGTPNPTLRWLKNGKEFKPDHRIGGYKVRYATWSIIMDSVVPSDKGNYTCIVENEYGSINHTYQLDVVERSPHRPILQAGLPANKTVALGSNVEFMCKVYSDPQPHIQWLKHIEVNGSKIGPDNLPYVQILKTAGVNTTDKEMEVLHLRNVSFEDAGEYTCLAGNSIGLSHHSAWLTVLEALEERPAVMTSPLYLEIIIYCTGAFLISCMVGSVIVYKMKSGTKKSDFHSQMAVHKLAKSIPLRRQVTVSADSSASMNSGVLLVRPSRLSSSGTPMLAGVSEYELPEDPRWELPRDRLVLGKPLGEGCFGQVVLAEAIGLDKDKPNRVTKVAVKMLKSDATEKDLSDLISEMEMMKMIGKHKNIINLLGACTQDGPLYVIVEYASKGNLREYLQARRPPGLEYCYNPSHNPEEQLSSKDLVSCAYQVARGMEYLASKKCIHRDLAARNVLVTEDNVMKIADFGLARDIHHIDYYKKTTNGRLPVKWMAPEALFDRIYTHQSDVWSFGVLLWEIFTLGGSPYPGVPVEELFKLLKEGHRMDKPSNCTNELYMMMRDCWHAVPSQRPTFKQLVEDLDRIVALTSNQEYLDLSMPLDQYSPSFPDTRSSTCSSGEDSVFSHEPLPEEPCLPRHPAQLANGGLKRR
Set-up: scale not given: the % may be the effect or the level left

Activity [%]	Compound
< 30	Cn1cnc(NCc2cccnc2)c1-c1nnc(Nc2ccc(Cl)cc2)o1
< 30	Cn1cnc(NCCc2ccc3c(c2)OCO3)c1-c1nnc(Nc2ccc(Cl)cc2)o1
< 30	Cc1ccc(Nc2nnc(-c3c(NCc4ccncc4)ncn3C)o2)c(F)c1
< 30	Cn1cnc(NCc2ccncc2)c1-c1nnc(Nc2ccc(Cl)c(C(F)(F)F)c2)o1

Each compound was assayed against Receptor-type tyrosine-protein kinase FLT3 (Homo sapiens) (UniProt P36888) (assay: Inhibition of Flt3 at 10 uM by HTRF method).
Set-up: scale not given: the % may be the effect or the level left

Activity [%]	Compound
< 30	Cn1cnc(NCc2cccnc2)c1-c1nnc(Nc2ccc(Cl)cc2)o1
< 30	Cn1cnc(NCCc2ccc3c(c2)OCO3)c1-c1nnc(Nc2ccc(Cl)cc2)o1
< 30	Cc1ccc(Nc2nnc(-c3c(NCc4ccncc4)ncn3C)o2)c(F)c1
< 30	Cn1cnc(NCc2ccncc2)c1-c1nnc(Nc2ccc(Cl)c(C(F)(F)F)c2)o1

What follows are compounds tested against Epidermal growth factor receptor (Homo sapiens) (UniProt P00533) (assay: […] against ErbB1 at 10 uM by HTRF method).
Epidermal growth factor receptor (Homo sapiens), sequence (P00533 whole entry): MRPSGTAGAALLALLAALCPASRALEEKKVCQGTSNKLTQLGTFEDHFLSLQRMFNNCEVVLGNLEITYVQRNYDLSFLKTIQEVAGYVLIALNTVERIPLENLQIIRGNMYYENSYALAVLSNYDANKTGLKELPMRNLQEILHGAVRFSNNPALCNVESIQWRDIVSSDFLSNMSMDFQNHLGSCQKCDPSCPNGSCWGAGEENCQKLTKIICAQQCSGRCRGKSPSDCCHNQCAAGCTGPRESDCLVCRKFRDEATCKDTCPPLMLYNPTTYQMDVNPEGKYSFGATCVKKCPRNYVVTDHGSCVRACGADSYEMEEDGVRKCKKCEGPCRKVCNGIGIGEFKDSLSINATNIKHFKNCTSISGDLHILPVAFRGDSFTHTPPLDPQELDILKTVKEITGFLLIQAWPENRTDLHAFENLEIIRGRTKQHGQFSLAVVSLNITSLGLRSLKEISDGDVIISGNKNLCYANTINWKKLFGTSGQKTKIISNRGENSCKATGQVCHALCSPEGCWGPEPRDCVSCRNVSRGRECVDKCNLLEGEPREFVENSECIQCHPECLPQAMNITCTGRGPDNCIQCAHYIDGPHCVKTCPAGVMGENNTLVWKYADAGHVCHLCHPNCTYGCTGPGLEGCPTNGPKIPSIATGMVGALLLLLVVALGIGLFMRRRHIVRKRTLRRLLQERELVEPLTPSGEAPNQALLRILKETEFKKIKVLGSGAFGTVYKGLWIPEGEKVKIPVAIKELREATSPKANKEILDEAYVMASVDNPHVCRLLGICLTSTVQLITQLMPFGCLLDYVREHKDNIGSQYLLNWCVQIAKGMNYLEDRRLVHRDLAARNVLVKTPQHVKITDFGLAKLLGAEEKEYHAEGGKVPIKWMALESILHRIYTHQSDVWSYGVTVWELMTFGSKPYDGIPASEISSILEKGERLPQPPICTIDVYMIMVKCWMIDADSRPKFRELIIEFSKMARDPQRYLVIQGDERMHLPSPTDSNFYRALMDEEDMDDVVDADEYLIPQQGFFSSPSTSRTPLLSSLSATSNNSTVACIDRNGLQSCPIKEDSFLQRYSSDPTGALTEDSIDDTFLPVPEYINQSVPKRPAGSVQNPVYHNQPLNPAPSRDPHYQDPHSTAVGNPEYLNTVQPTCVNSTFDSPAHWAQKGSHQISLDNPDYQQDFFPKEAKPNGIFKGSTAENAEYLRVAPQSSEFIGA

Percent inhibition [%]	Compound
< 30	Cn1cnc(NCc2cccnc2)c1-c1nnc(Nc2ccc(Cl)cc2)o1
< 30	Cn1cnc(NCCc2ccc3c(c2)OCO3)c1-c1nnc(Nc2ccc(Cl)cc2)o1
< 30	Cc1ccc(Nc2nnc(-c3c(NCc4ccncc4)ncn3C)o2)c(F)c1
< 30	Cn1cnc(NCc2ccncc2)c1-c1nnc(Nc2ccc(Cl)c(C(F)(F)F)c2)o1

The compounds below were run against T1, Ephrin type-B receptor 4 (Homo sapiens) (UniProt P54760) (assay: Percent inhibition against EphB4 at 10 uM by HTRF method).
T1 sequence (whole entry): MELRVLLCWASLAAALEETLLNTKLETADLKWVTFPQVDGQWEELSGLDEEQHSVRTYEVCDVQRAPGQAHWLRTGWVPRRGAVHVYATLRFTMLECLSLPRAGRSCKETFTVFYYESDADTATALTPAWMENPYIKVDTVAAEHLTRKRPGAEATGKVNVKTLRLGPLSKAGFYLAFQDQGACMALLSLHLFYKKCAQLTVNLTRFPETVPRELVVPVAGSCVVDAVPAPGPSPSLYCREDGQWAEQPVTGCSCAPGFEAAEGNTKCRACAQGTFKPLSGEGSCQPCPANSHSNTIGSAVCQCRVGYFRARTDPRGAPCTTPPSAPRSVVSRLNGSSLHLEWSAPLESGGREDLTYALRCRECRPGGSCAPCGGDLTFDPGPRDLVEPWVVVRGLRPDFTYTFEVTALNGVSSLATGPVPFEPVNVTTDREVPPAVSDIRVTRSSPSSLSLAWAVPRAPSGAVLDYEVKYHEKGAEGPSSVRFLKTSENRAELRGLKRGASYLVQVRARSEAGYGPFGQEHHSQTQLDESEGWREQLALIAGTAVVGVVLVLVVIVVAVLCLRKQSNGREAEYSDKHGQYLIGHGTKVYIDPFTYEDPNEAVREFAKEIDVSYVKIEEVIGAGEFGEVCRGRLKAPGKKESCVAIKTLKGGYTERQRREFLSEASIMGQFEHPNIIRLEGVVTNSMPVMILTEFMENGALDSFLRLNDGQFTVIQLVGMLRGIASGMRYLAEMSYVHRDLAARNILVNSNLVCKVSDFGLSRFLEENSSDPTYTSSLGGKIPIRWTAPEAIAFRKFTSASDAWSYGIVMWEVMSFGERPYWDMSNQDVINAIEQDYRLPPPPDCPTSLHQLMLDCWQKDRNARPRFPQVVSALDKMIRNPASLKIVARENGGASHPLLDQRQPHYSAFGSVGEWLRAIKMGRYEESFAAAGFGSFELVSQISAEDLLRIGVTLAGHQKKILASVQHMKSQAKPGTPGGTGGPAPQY
Set-up: scale not given: the % may be the effect or the level left

Activity [%]	Compound
< 30	Cn1cnc(NCc2cccnc2)c1-c1nnc(Nc2ccc(Cl)cc2)o1
< 30	Cn1cnc(NCCc2ccc3c(c2)OCO3)c1-c1nnc(Nc2ccc(Cl)cc2)o1
< 30	Cc1ccc(Nc2nnc(-c3c(NCc4ccncc4)ncn3C)o2)c(F)c1
< 30	Cn1cnc(NCc2ccncc2)c1-c1nnc(Nc2ccc(Cl)c(C(F)(F)F)c2)o1

These compounds were tested against Cyclin-dependent kinase 5 (Homo sapiens) (UniProt Q00535) (assay: […] against Cdk5 at 10 uM by HTRF method).
Cyclin-dependent kinase 5 (Homo sapiens), sequence (Q00535 whole entry, looked up): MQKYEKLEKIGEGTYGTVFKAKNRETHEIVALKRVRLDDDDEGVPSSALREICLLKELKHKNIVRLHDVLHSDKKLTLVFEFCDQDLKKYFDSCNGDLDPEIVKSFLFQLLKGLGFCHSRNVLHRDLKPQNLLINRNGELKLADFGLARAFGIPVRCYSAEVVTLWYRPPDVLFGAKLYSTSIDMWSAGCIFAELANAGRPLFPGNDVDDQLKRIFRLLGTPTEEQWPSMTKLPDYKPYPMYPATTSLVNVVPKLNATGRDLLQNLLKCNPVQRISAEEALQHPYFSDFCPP

Activity [%]	Compound
< 30	Cn1cnc(NCc2cccnc2)c1-c1nnc(Nc2ccc(Cl)cc2)o1
< 30	Cn1cnc(NCCc2ccc3c(c2)OCO3)c1-c1nnc(Nc2ccc(Cl)cc2)o1
< 30	Cc1ccc(Nc2nnc(-c3c(NCc4ccncc4)ncn3C)o2)c(F)c1
< 30	Cn1cnc(NCc2ccncc2)c1-c1nnc(Nc2ccc(Cl)c(C(F)(F)F)c2)o1

What follows are compounds tested against Vascular endothelial growth factor receptor 1 (Homo sapiens, UniProt P17948) (assay: Inhibition of VEGFR1 by enzymatic assay).

IC50 [µM]	Compound
> 10	Cn1cnc(NCc2cccnc2)c1-c1nnc(Nc2ccc(Cl)cc2)o1
1.47	Cn1cnc(NCCc2ccc3c(c2)OCO3)c1-c1nnc(Nc2ccc(Cl)cc2)o1
0.59	Cc1ccc(Nc2nnc(-c3c(NCc4ccncc4)ncn3C)o2)c(F)c1
0.51	Cn1cnc(NCc2ccncc2)c1-c1nnc(Nc2ccc(Cl)c(C(F)(F)F)c2)o1

What follows are compounds tested against T2, Vascular endothelial growth factor receptor 2 (Homo sapiens, UniProt P35968) (assay: Inhibition of VEGFR2 in 293 adenovirus transfected kidney cells by cell-based ELISA assay).
T2 sequence (P35968 whole entry): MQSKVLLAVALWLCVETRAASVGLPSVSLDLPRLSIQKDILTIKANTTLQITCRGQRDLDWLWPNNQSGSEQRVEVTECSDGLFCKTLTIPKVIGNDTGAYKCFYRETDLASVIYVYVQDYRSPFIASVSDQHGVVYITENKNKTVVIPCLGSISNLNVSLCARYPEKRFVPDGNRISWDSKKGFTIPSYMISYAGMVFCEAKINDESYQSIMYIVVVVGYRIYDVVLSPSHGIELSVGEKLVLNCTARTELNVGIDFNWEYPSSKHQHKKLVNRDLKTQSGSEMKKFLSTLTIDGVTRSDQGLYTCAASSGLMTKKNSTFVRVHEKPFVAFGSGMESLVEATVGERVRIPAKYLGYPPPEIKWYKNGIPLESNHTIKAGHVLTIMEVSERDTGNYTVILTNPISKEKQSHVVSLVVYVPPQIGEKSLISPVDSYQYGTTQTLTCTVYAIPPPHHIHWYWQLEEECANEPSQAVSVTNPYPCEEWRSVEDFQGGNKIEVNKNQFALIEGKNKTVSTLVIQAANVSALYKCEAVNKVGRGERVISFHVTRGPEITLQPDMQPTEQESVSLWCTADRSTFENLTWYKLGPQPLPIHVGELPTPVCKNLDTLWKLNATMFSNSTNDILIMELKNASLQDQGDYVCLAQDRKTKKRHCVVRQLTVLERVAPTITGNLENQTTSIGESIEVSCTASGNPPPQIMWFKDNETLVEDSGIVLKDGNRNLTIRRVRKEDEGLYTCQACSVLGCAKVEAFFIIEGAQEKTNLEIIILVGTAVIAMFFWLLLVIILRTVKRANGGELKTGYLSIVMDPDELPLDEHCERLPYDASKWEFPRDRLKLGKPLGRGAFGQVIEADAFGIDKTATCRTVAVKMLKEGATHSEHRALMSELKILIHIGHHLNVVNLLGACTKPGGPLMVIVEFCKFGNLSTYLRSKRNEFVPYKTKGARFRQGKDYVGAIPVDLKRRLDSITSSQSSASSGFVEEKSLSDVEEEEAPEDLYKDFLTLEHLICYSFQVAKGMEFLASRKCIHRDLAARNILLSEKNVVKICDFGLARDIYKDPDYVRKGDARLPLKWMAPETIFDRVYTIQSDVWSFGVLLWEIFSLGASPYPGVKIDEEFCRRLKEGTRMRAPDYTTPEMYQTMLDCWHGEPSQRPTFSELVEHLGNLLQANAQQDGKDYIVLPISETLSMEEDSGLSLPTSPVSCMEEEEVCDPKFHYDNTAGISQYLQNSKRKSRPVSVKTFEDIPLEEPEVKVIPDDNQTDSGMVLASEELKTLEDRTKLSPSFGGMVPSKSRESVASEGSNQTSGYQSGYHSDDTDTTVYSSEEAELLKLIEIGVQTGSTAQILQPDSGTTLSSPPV

IC50 [µM]	Compound
> 10	Cn1cnc(NCc2cccnc2)c1-c1nnc(Nc2ccc(Cl)cc2)o1
> 10	Cn1cnc(NCCc2ccc3c(c2)OCO3)c1-c1nnc(Nc2ccc(Cl)cc2)o1
0.64	Cc1ccc(Nc2nnc(-c3c(NCc4ccncc4)ncn3C)o2)c(F)c1
0.1	Cn1cnc(NCc2ccncc2)c1-c1nnc(Nc2ccc(Cl)c(C(F)(F)F)c2)o1

These compounds were tested against T2, Vascular endothelial growth factor receptor 2 (assay: Inhibition of VEGFR2 by enzymatic assay).

IC50 [µM]	Compound
> 10	Cn1cnc(NCc2cccnc2)c1-c1nnc(Nc2ccc(Cl)cc2)o1
0.96	Cn1cnc(NCCc2ccc3c(c2)OCO3)c1-c1nnc(Nc2ccc(Cl)cc2)o1
0.26	Cc1ccc(Nc2nnc(-c3c(NCc4ccncc4)ncn3C)o2)c(F)c1
0.043	Cn1cnc(NCc2ccncc2)c1-c1nnc(Nc2ccc(Cl)c(C(F)(F)F)c2)o1

What follows are compounds tested against Hepatocyte growth factor receptor (Homo sapiens) (UniProt P08581) (assay: Percent inhibition against c-Met at 10 uM by HTRF method).
Set-up: scale not given: the % may be the effect or the level left

Activity [%]	Compound
< 30	Cn1cnc(NCc2cccnc2)c1-c1nnc(Nc2ccc(Cl)cc2)o1
< 30	Cn1cnc(NCCc2ccc3c(c2)OCO3)c1-c1nnc(Nc2ccc(Cl)cc2)o1
< 30	Cc1ccc(Nc2nnc(-c3c(NCc4ccncc4)ncn3C)o2)c(F)c1
< 30	Cn1cnc(NCc2ccncc2)c1-c1nnc(Nc2ccc(Cl)c(C(F)(F)F)c2)o1

What follows are compounds tested against Receptor tyrosine-protein kinase erbB-2 (Homo sapiens) (UniProt P04626) (assay: […] against ErbB2 at 10 uM by HTRF method).

Activity [%]	Compound
< 30	Cn1cnc(NCc2cccnc2)c1-c1nnc(Nc2ccc(Cl)cc2)o1
< 30	Cn1cnc(NCCc2ccc3c(c2)OCO3)c1-c1nnc(Nc2ccc(Cl)cc2)o1
< 30	Cc1ccc(Nc2nnc(-c3c(NCc4ccncc4)ncn3C)o2)c(F)c1
< 30	Cn1cnc(NCc2ccncc2)c1-c1nnc(Nc2ccc(Cl)c(C(F)(F)F)c2)o1
